Earlier results in patent publication US7863316B2, “Extended release formulation of Levetiracetam” (UCB Pharma S.A., priority 2005, dated 2011).

Tests used:
[1] = not given; remark: listed apart in the source
[2] = three different pH media, immediate release tablet

solubility in acetonitrile (acetonitrile): 5.7 g/100 mL
solubility in chloroform (chloroform): 65.3 g/100 mL
solubility in ethanol (ethanol): 16.5 g/100 mL
solubility in methanol (methanol): 53.6 g/100 mL
solubility in n-hexane (n-hexane): practically insoluble
aqueous solubility (water): 104 g/100 mL
time to steady state kinetics ([1]; after multiple twice daily dosing): 2 days
bound to plasma proteins ([1]; in vivo): less than 10%
renal clearance ([1]; in vivo): 0.6 mL/min/kg
total body clearance ([1]; in vivo): 0.9 mL/min/kg
volume of distribution ([1]; in vivo): 0.6 L/kg
decrease of cmax by food ([1]; with food): 20%
delay of Tmax by food ([1]; with food): 1.5 h
tablet amount released in 15 minutes [2]: > 85%
SMILES: CC[C@@H](C(N)=O)N1CCCC1=O [Levetiracetam, (−)-(S)-α-ethyl-2-oxo-1-pyrrolidine acetamide]
